Results on 9 compounds are retold here after ChEMBL document CHEMBL6177964 (Eur J Med Chem, 2025).

The term pIC50 denotes the negative decadic logarithm of the IC50, by convention in mol/L. A word on the pKd: it is −log10 of the Kd, conventionally taken in molar units.

Test [1] concerns the target T1, Angiotensin-converting enzyme (Homo sapiens, UniProt P12821). The experiment in a line: Inhibition of ACE (unknown origin) preincubated with compound for 5 mins and measured after 60 mins.
Test [2] has as its target T1, Angiotensin-converting enzyme. The experiment in a line: Inhibition of ACE (unknown origin).
Test [3] concerns Rattus norvegicus. The experiment in a line: Antihypertensive activity in spontaneously […] male Wistar Kyoto rat assessed as increase in fecal propionic acid level at 5 mg/kg administered via gavage for 4 weeks and measured at 22 hrs post dose by RP-HPLC analysis relative to control. Format: functional.
Test [4] concerns the target T1, Angiotensin-converting enzyme. The test can be described thus: Binding affinity to ACE (unknown origin) assessed as change in entropy (-TdeltaS) at 800 to 1400 nM by isothermal titration calorimetric analysis. The conditions noted are these: dose 800-1400 nM.
The species named for test [5] is Rattus norvegicus. The test can be described thus: Prevention of gut microbiota dysbiosis in spontaneously hypertensive male Wistar Kyoto rat model assessed as increase in simpson indices. Format: functional, organism-based.
Test [6] relates to Rattus norvegicus. The experiment in a line: Acute antihypertensive activity in spontaneously hypertensive male Wistar Kyoto rat assessed as reduction in diastolic blood pressure at 2.5 mg/kg administered via gavage measured after 6 hrs by tail-artery manometry. Type of test: functional.
For test [7], the species on record is Rattus norvegicus. The test can be described thus: Prevention of gut microbiota dysbiosis in spontaneously hypertensive male Wistar Kyoto rat model assessed as fold increase in turicibacter abundance. Format: functional.
Test [8] concerns Rattus norvegicus. The test can be described thus: Subacute antihypertensive activity in spontaneously hypertensive male Wistar Kyoto rat assessed as reduction in systolic blood pressure at 5 mg/kg administered via gavage for 4 weeks and measured at 22 hrs post dose by tail-artery manometry. Type of test: functional.
Test [9] concerns Rattus norvegicus. The experiment in a line: Effect on spontaneously hypertensive male Wistar Kyoto rat assessed as reduction in Ang II level in serum at 5 mg/kg administered via gavage for 4 weeks and measured at 22 hrs post dose by ELISA. Format: functional, organism-based. A general note: In an ELISA, binding on a coated surface is turned into a signal by an enzyme label.
In test [10] the test system is Rattus norvegicus. The test can be described thus: Effect on spontaneously hypertensive male Wistar Kyoto rat assessed as reduction in serum ACE activity by measuring hippuric acid level at 5 mg/kg administered via gavage for 4 weeks and measured at 22 hrs post dose by RP-HPLC analysis. Type of test: functional, organism-based.
For test [11], the species on record is Rattus norvegicus. The experiment in a line: Prevention of gut microbiota dysbiosis in spontaneously hypertensive male Wistar Kyoto rat model assessed as fold increase in roseburia abundance. Format: functional.
Test [12] is filed under the species Rattus norvegicus. The experiment in a line: Prevention of gut microbiota dysbiosis in spontaneously hypertensive male Wistar Kyoto rat model assessed as increase in bacteroidetes abundance. Type of test: functional, organism-based.
The test system of test [13] is Rattus norvegicus. The experiment in a line: Antihypertensive activity in spontaneously […] male Wistar Kyoto rat assessed as increase in fecal butyric acid level at 5 mg/kg administered via gavage for 4 weeks and measured at 22 hrs post dose by RP-HPLC analysis relative to control. Type of test: functional.
Test [14] relates to Rattus norvegicus. The test can be described thus: Subacute antihypertensive activity in spontaneously hypertensive male Wistar Kyoto rat assessed as reduction in diastolic blood pressure at 5 mg/kg administered via gavage for 4 weeks and measured at 22 hrs post dose by tail-artery manometry. Format: functional.
Test [15] is filed under the species Rattus norvegicus. The test can be described thus: Prevention of gut microbiota dysbiosis in spontaneously hypertensive male Wistar Kyoto rat model assessed as decrease in epsilonbacteraeota abundance. Format: functional, organism-based.
Test [16] has as its system Rattus norvegicus. The experiment in a line: Subacute antihypertensive activity in spontaneously hypertensive male Wistar Kyoto rat assessed as reduction in diastolic blood pressure at 5 mg/kg administered via gavage and measured after 1 week by tail-artery manometry. The following applies: time 1.0 weeks. Format: functional, organism-based.
For test [17], the species on record is Rattus norvegicus. The test can be described thus: Prevention of gut microbiota dysbiosis in spontaneously hypertensive male Wistar Kyoto rat model assessed as fold increase in ruminococcaceae abundance. Type of test: functional.
The test system of test [18] is Rattus norvegicus. The test can be described thus: Acute antihypertensive activity in spontaneously hypertensive male Wistar Kyoto rat assessed as reduction in systolic blood pressure at 2.5 mg/kg administered via gavage measured after 4 hrs by tail-artery manometry. Format: functional.
The species named for test [19] is Rattus norvegicus. The experiment in a line: Prevention of gut microbiota dysbiosis in spontaneously hypertensive male Wistar Kyoto rat model assessed as fold increase in lachnospiraceae abundance. Format: functional.
The species named for test [20] is Rattus norvegicus. The test can be described thus: Prevention of gut microbiota dysbiosis in spontaneously hypertensive male Wistar Kyoto rat model assessed as decrease in streptococcus abundance relative to control. Format: functional. More on the design: scale not given: the % may be the effect or the level left.
The species named for test [21] is Rattus norvegicus. The test can be described thus: Prevention of gut microbiota dysbiosis in spontaneously hypertensive male Wistar Kyoto rat model assessed as fold increase in ruminococcaceae UCG-014 abundance. Format: functional.
The target in test [22] is T1, Angiotensin-converting enzyme. The experiment in a line: Binding affinity to ACE (unknown origin) assessed as change in entropy (deltaS) at 800 to 1400 nM by isothermal titration calorimetric analysis. The following applies: dose 800-1400 nM. In general terms: In ITC the heat of successive injections is recorded.
The target is the same in test [23]. The experiment in a line: Binding affinity to ACE (unknown origin) measured at 20 mins.
In test [24] the test system is Rattus norvegicus. The test can be described thus: Subacute antihypertensive activity in spontaneously hypertensive male Wistar Kyoto rat assessed as reduction in systolic blood pressure at 5 mg/kg administered via gavage and measured after 1 week by tail-artery manometry. Format: functional, organism-based. The following applies: time 1.0 weeks.
Test [25] deals with T1, Angiotensin-converting enzyme. The experiment in a line: Binding affinity to ACE (unknown origin) assessed as change in Gibbs free energy at 800 to 1400 nM by isothermal titration calorimetric analysis. The following applies: dose 800-1400 nM.
The species named for test [26] is Rattus norvegicus. The experiment in a line: Prevention of gut microbiota dysbiosis in spontaneously hypertensive male Wistar Kyoto rat model assessed as fold increase in oscillibacter abundance. Format: functional.
Test [27] deals with T1, Angiotensin-converting enzyme. The test can be described thus: Binding affinity to ACE (unknown origin) assessed as dissociation constant by isothermal titration calorimetric analysis.
The species entered for test [28] is Rattus norvegicus. The experiment in a line: Prevention of gut microbiota dysbiosis in spontaneously hypertensive male Wistar Kyoto rat model assessed as increase in shannon indices. Type of test: functional, organism-based.
The target of test [29] is T1, Angiotensin-converting enzyme. The experiment in a line: Binding affinity to ACE (unknown origin) assessed as change in enthalpy at 800 to 1400 nM by isothermal titration calorimetric analysis. The following applies: dose 800-1400 nM.
Test [30] is filed under the species Rattus norvegicus. The test can be described thus: Prevention of gut microbiota dysbiosis in spontaneously hypertensive male Wistar Kyoto rat model assessed as decrease in parabacteroides abundance relative to control. Format: functional. Also on record: scale not given: the % may be the effect or the level left.
The species named for test [31] is Rattus norvegicus. The test can be described thus: Prevention of gut microbiota dysbiosis in spontaneously hypertensive male Wistar Kyoto rat model assessed as increase in enterobacteriaceae abundance relative to control. Format: functional.
The species named for test [32] is Rattus norvegicus. The test can be described thus: Prevention of gut microbiota dysbiosis in spontaneously hypertensive male Wistar Kyoto rat model assessed as fold increase in rikenellaceae abundance. Format: functional.
The test system of test [33] is Rattus norvegicus. The test can be described thus: Antihypertensive activity in spontaneously […] male Wistar Kyoto rat assessed as increase in fecal acetic acid level at 5 mg/kg administered via gavage for 4 weeks and measured at 22 hrs post dose by RP-HPLC analysis relative to control. Type of test: functional.
In test [34] the target is T1, Angiotensin-converting enzyme. The experiment in a line: Binding affinity to ACE (unknown origin).

pIC50, pKd: −log10 of the molar value. Calls of active or inactive are those of the source. The calls are words filed in the database; no cut-off is given here. Residues, ends and D or L forms follow the SMILES beside them.

T1 sequence (P12821 whole entry): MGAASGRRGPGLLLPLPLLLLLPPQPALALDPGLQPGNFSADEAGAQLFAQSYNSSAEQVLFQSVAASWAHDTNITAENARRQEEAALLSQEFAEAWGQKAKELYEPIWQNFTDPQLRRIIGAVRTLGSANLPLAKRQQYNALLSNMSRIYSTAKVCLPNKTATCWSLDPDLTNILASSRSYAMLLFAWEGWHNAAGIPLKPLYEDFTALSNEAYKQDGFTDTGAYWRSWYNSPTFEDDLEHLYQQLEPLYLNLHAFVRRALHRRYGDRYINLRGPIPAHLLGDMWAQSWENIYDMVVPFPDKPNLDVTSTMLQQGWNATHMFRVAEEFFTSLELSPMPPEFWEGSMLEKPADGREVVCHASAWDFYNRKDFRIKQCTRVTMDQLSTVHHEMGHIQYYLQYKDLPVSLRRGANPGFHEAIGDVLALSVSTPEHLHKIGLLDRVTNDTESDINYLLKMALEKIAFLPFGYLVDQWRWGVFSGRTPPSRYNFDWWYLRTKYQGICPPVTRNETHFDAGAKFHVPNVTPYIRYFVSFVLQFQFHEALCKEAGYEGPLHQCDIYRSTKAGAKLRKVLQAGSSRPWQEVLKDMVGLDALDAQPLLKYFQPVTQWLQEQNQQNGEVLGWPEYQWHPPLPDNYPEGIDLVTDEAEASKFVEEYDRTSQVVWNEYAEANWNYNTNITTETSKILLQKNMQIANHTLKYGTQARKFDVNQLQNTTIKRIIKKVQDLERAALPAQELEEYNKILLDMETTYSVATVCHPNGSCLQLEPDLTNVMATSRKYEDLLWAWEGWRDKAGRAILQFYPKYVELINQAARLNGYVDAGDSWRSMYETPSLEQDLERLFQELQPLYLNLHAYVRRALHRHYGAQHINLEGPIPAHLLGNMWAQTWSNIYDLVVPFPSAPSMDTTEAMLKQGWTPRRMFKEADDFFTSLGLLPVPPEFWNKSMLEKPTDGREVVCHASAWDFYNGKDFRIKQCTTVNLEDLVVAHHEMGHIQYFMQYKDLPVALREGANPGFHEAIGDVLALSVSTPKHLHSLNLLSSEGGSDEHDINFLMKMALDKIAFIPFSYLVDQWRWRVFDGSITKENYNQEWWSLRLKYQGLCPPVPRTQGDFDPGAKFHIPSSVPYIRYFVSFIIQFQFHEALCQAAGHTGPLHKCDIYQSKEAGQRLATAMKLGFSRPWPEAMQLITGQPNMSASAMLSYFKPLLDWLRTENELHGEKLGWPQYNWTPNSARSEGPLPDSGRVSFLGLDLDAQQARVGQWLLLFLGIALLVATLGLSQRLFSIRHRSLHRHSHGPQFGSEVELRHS

For the compound `C[C@H](NC(=O)[C@H](CCCCN)NC(=O)[C@H](C)NC(=O)[C@@H](N)CCCCN)C(=O)O` (H-KAKA-OH), the pIC50 in [1] was 3.18.
`CC(C)C[C@H](NC(=O)[C@H](Cc1c[nH]c2ccccc12)NC(=O)[C@@H](N)CCCCN)C(=O)N1CCC[C@H]1C(=O)O` (H-KWLP-OH) had a negative-log IC50 (pIC50) in test [2] of 5.30.
For the compound `C[C@H](NC(=O)[C@@H](N)CCCCN)C(=O)N[C@@H](CCCCN)C(=O)O` (H-Lys-Ala-Lys-OH), the negative logarithm of the IC50 (pIC50) in test [1] was 2.73.
`C[C@H](NC(=O)[C@@H](N)CCCCN)C(=O)N[C@@H](CCCCN)C(=O)N[C@@H](Cc1c[nH]c2ccccc12)C(=O)O` (H-KAKW-OH): the Activity in the test on Rattus norvegicus [3] was 105%; in the test on Rattus norvegicus [6], 18 mmHg; with Rattus norvegicus [8], 11 mmHg; in the test with Rattus norvegicus [13] it was 45%; in the test on Rattus norvegicus [14], 12 mmHg; in the test with Rattus norvegicus [18] it was 20 mmHg. For the same compound, the Activity stood at 43% in the test filed under Rattus norvegicus [20], 44% in the test listed under Rattus norvegicus [30], 85% in the test listed under Rattus norvegicus [31] and 28% in the test on Rattus norvegicus [33]. Further, the -TdeltaS in test [4] is -1.57 kcal/mol. In addition, the result in the test listed under Rattus norvegicus [5], in the test with Rattus norvegicus [9], in the test with Rattus norvegicus [10], in the test filed under Rattus norvegicus [12], in the test listed under Rattus norvegicus [15] and in the test with Rattus norvegicus [16] was Active. For the same compound, the outcome (in test [23]; with Rattus norvegicus [24]; in the test filed under Rattus norvegicus [28]) was Active. The “fold change (FC)” value came to 2.3 in the test listed under Rattus norvegicus [7]; 2 in the test filed under Rattus norvegicus [11]; 4.4 in the test listed under Rattus norvegicus [17]; 1.5 in the test filed under Rattus norvegicus [19]; 1.8 in the test listed under Rattus norvegicus [21]; 2.6 in the test listed under Rattus norvegicus [26]. Further, in the test listed under Rattus norvegicus [32], the “fold change (FC)” value worked out at 4.4. Besides, the deltaS in test [22] amounted to 5.28 cal/mol.K. Besides, in [25], the deltaG is -9.88 kcal/mol. In addition, the pIC50 in test [1] is 5.69. In addition, in [27], the negative-log Kd (pKd) is 7.24. The deltaH in test [29] is -8.31 kcal/mol.
`CC(C)C[C@H](N)C(=O)N[C@@H](C)C(=O)N1CCC[C@H]1C(=O)N[C@@H](Cc1ccc(O)cc1)C(=O)N[C@@H](Cc1c[nH]c2ccccc12)C(=O)O` (H-LAPYW-OH) had a pIC50 in test [34] of 5.27.
As for `N=C(N)NCCC[C@H](NC(=O)[C@@H]1CCCN1C(=O)[C@H](CC(N)=O)NC(=O)CN)C(=O)O` (H-GNPR-OH), in [1], the negative-log IC50 (pIC50) was 2.52.
The same measure, in the same setting: as for `CC(C)C[C@H](NC(=O)[C@H](CCCCN)NC(=O)[C@H](C)NC(=O)[C@@H](N)CCCCN)C(=O)O` (H-KAKL-OH), the figure is 2.58; as for `CC[C@H](C)[C@H](NC(=O)[C@H](CCCCN)NC(=O)[C@H](C)NC(=O)[C@@H](N)CCCCN)C(=O)O` (H-KAKI-OH), 2.16; as for `CC(C)C[C@H](NC(=O)CNC(=O)[C@H](CCC(=O)O)NC(=O)[C@@H]1CCCN1C(=O)[C@@H](N)C(C)C)C(=O)N[C@@H](CC(N)=O)C(=O)N[C@@H](CO)C(=O)N[C@@H](Cc1c[nH]c2ccccc12)C(=O)N1CCC[C@H]1C(=O)N[C@@H](Cc1ccccc1)C(=O)O` (H-VPEGLNSWPF-OH), 4.13.
